Data: PubChem BioAssay AID1996
Values after ≈ are worked out from the molar mass of the structure shown.

Conditions: buffer; pH 7.4; 200.0 µM

`COc1cccc(NC(=O)Cn2cc(C=O)c3ccccc32)c1` and `O=C(Cn1cc(C(=O)C2CC2)c2ccccc21)Nc1ccc(F)cc1` are within 1.5-fold of each other in solubility kinetic: 0.5 µg/mL (≈ 1.62 µM) for the first, 0.7 µg/mL (≈ 2.08 µM) for the second.

Going from `O=C(NCCCCc1ccccc1)Nc1ccc(F)cc1` to `COc1ccc(CCNC(=O)CCCc2ccccc2)cc1`, the solubility kinetic rises from 2.3 µg/mL (≈ 8.03 µM) to 35.6 µg/mL (≈ 120 µM) (15-fold).

Going from `CN(C)C(C)(C)/C=C/C(O)(c1ccccc1)c1ccccc1` to `CN1C(c2ccccc2)CC(=NO)CC1c1ccccc1` (stereo unspecified), the solubility kinetic falls from 43 µg/mL (≈ 146 µM) to 1.4 µg/mL (≈ 4.99 µM) (31-fold).

`O=C(NC1CCSC1=O)C1CCCCC1` (stereo unspecified) and `O=C(NC(=S)NC1CCSC1=O)c1ccc([N+](=O)[O-])cc1` (stereo unspecified) cannot be ordered by solubility kinetic: > 34.1 µg/mL for the first, 40.6 µg/mL (≈ 125 µM) for the second.

Going from `CC(Nc1nc(C(F)(F)F)nc2ccccc12)c1cccs1` (stereo unspecified) to `Cc1ccc(-c2nc3ccccc3[nH]2)cn1`, the solubility kinetic rises from 6.5 µg/mL (≈ 20.1 µM) to 29.5 µg/mL (≈ 141 µM) (4.5-fold).

Compared with `CN(CC(=O)NCCc1ccccc1)Cc1ccco1`, `COCCN(C(=O)c1ccco1)c1nc(-c2ccccc2)cs1` is lower in solubility kinetic: > 40.9 µg/mL for the first, 5.7 µg/mL (≈ 17.4 µM) for the second.

Going from `COc1cccc(N2CCN(C(=O)/C=C/c3ccco3)CC2)c1` to `COc1ccccc1N1CCN(C(=O)c2cc3cc(F)ccc3[nH]2)CC1`, the solubility kinetic falls from 44.6 µg/mL (≈ 143 µM) to 0.7 µg/mL (≈ 1.98 µM) (64-fold).

`COc1ccc(C(=O)NC23CC4CC(CC(C4)C2)C3)cc1OC` and `CCOc1cc(C(=O)NC2CCCCCCC2)cc(OCC)c1OCC` are within 1.5-fold of each other in solubility kinetic: 2.9 µg/mL (≈ 9.19 µM) for the first, 2.3 µg/mL (≈ 6.33 µM) for the second.

`CC(C)OP(=O)(OC(C)C)C(Nc1ccccc1)c1cccnc1` (stereo unspecified) and `Cc1ccccc1N=C(NO)c1cccnc1` cannot be ordered by solubility kinetic: 46.5 µg/mL (≈ 133 µM) for the first, > 34.1 µg/mL for the second.

Compared with `Cc1ccc(N(Cc2ccccc2O)C(=O)c2ccccc2F)cc1`, `NC(=O)c1ccccc1OCc1cccc2ccccc12` is higher in solubility kinetic: < 0.7 µg/mL for the first, 2.9 µg/mL (≈ 10.5 µM) for the second.

`COc1ccc(C(=O)CCC(C)(C)[N+](=O)[O-])cc1` and `O=C(COC(=O)c1ccccn1)c1ccc([N+](=O)[O-])cc1` are within 1.5-fold of each other in solubility kinetic: 31.8 µg/mL (≈ 127 µM) for the first, 39.9 µg/mL (≈ 139 µM) for the second.

Compared with `Cc1ccccc1NC(=S)N(Cc1ccccc1)Cc1cccs1`, `COc1ccccc1CNC1CCN(Cc2ccccc2)CC1` is higher in solubility kinetic: 0.7 µg/mL (≈ 1.99 µM) for the first, > 46.6 µg/mL for the second.

`Cc1ccc(F)c(NC(=O)c2cncn2-c2ccccc2)c1` and `CCOc1ccccc1C(=O)Nc1cc(C)ccc1NC(=O)c1ccco1` are within 1.5-fold of each other in solubility kinetic: 41.2 µg/mL (≈ 140 µM) for the first, 43.4 µg/mL (≈ 119 µM) for the second.

First: O=[N+]([O-])c1ccc(N2CCN(c3ccc(F)cc3)CC2)cn1
Second: O=C(COc1cccnc1[N+](=O)[O-])Nc1ccc(F)cc1
The solubility kinetic of the first is 3.3-fold lower: 3.5 µg/mL (≈ 11.6 µM) for the first, 11.5 µg/mL (≈ 39.5 µM) for the second.

`O=C(/C=C/c1ccco1)Nc1ccc2c(c1)OCCO2` and `O=C(Nc1cc(Cl)ccc1N1CCOCC1)c1cccnc1` cannot be ordered by solubility kinetic: > 40.7 µg/mL for the first, > 47.7 µg/mL for the second.

Going from `NS(=O)(=O)c1ccc(NS(=O)(=O)c2ccc(Br)cc2)cc1` to `O=C(COc1ccc(S(=O)(=O)N2CCOCC2)cc1)Nc1ccc(Br)cc1`, the solubility kinetic falls from > 58.7 µg/mL to 5.4 µg/mL (≈ 11.9 µM).

Going from `CC(C)C(=O)N1CCN(S(=O)(=O)c2ccc3ccccc3c2)CC1` to `CN(C1CCS(=O)(=O)C1)S(=O)(=O)c1ccc2ccccc2c1` (stereo unspecified), the solubility kinetic falls from 23.2 µg/mL (≈ 67 µM) to 9.2 µg/mL (≈ 27.1 µM) (2.5-fold).

First: COC(=O)C(C)Oc1ccc(-c2nccc(-c3ccc(F)cc3)n2)cc1 (stereo unspecified)
Second: Nc1nc(-c2ccc(Oc3ccccc3)cc2)cs1
The solubility kinetic of the first is 4.9-fold lower: 2.6 µg/mL (≈ 7.38 µM) for the first, 12.8 µg/mL (≈ 47.7 µM) for the second.

`CN(Cc1ccccc1)S(=O)(=O)c1cn(C)cn1` and `CC(C)(C)C(=O)C1=C(O)C(=O)N(Cc2ccccc2)C1c1ccccc1Cl` (stereo unspecified) cannot be ordered by solubility kinetic: > 39.8 µg/mL for the first, > 57.6 µg/mL for the second.

First: CCN1C(=O)/C(=C\N2CCN(C(=O)c3ccco3)CC2)SC1=S
Second: CCOC(=O)c1ccsc1NC(=O)c1ccco1
The solubility kinetic of the first is higher: 1.1 µg/mL (≈ 3.13 µM) for the first, < 0.6 µg/mL for the second.

Compared with `CCOC(=O)C1=C(C)NC(=O)CC1c1ccccc1OC` (stereo unspecified), `CCOC(=O)CNC(=O)C1COc2ccccc2O1` (stereo unspecified) is higher in solubility kinetic: 36.8 µg/mL (≈ 127 µM) for the first, > 39.8 µg/mL for the second.

First: CCOC(=O)c1c(N)c2cc([N+](=O)[O-])ccc2n1C
Second: Cc1ccc(C)c(NC(=O)c2cc([N+](=O)[O-])cc([N+](=O)[O-])c2)c1
The solubility kinetic of the first is lower: < 0.2 µg/mL for the first, 0.6 µg/mL (≈ 1.9 µM) for the second.

Compared with `O=c1c2oc3ccccc3c2ncn1Cc1ccc(F)cc1`, `CCOC(=O)c1ccc(NC(=S)NCc2ccc(F)cc2)cc1` is 2.8-fold higher in solubility kinetic: 0.8 µg/mL (≈ 2.72 µM) for the first, 2.2 µg/mL (≈ 6.62 µM) for the second.

Compared with `Cc1ccc(S(=O)(=O)NCCNC(=O)c2ccc(C)nc2)cc1`, `Cc1cc(C)nc(NS(=O)(=O)c2ccc(CC(C)C)cc2)c1` is lower in solubility kinetic: > 50 µg/mL for the first, 28.9 µg/mL (≈ 90.8 µM) for the second.

`CCCc1nc2ccccc2c(C(=O)OCC(=O)NC2CC2)c1CC` and `CCN(C(=O)COC(=O)c1ccc[nH]c1=O)c1cccc2ccccc12` cannot be ordered by solubility kinetic: > 51.1 µg/mL for the first, > 52.6 µg/mL for the second.

First: Fc1cccc(F)c1/C=N/N1CCOCC1
Second: O=C(Cc1c(F)cccc1Cl)OCC(=O)N1CCc2ccccc21
The solubility kinetic of the first is higher: > 33.9 µg/mL for the first, 9.5 µg/mL (≈ 27.3 µM) for the second.

First: CCCCc1ccc(NC(=O)c2cnccn2)cc1
Second: O=C(NCCCn1ccnc1)c1ccc2nccnc2c1
The solubility kinetic of the first is lower: 4 µg/mL (≈ 15.7 µM) for the first, > 42.2 µg/mL for the second.

Compared with `Cc1cc(C)c(C)c(S(=O)(=O)NCc2ccncc2)c1C`, `CCC(=O)N/C(=N/c1nc(C)cc(C)n1)Nc1ccc(C)cc1` is 15-fold lower in solubility kinetic: 25.8 µg/mL (≈ 84.8 µM) for the first, 1.7 µg/mL (≈ 5.46 µM) for the second.

Going from `CC(C)c1ccc(OCC(O)CN2CCCC2)cc1.Cl` (stereo unspecified) to `Cc1c(C)n(C)c2ccc(C(=O)NCCCN3CCCC3)cc12`, the solubility kinetic rises from 43.8 µg/mL to > 47 µg/mL.

Compared with `CCOc1nc2ccccc2nc1NS(=O)(=O)c1ccc(Cl)cc1`, `CC(C)(C)n1cnc2cc(NC(=O)c3ccc(Cl)cc3)ccc21` is lower in solubility kinetic: > 54.6 µg/mL for the first, 33.4 µg/mL (≈ 102 µM) for the second.

`CC(=O)c1ccc(NC(=O)COC(=O)C2C3CC4OC(=O)C2C4C3)cc1` (stereo unspecified) and `NC(=O)C1CCN(C(=O)CNC(=O)c2ccc(F)cc2)CC1` cannot be ordered by solubility kinetic: > 53.6 µg/mL for the first, > 46.1 µg/mL for the second.

Going from `O=C(CN1C(=O)CSc2ncccc21)Nc1ccccc1F` to `Cc1c(Cl)cccc1NC(=S)Nc1ccccn1`, the solubility kinetic falls from > 47.6 µg/mL to 1 µg/mL (≈ 3.6 µM).

First: O=C(CN1CCN(c2cccc(Cl)c2)CC1)NCc1ccccc1
Second: S=C(Nc1ccccc1)N1CCN(C/C=C/c2ccccc2)CC1
The solubility kinetic of the first is lower: 42.5 µg/mL (≈ 124 µM) for the first, > 50.6 µg/mL for the second.

Going from `O=C1CCCN1CCCNC(=S)Nc1ccccc1` to `S=C(CN1CCCC1=S)NCCc1ccccc1`, the solubility kinetic rises from 41 µg/mL (≈ 148 µM) to > 41.8 µg/mL.

`Cc1ccc(C)c(N(CC(=O)N2CCc3ccccc3C2)S(C)(=O)=O)c1` and `CC(=O)C1=C(O)C(=O)N(c2ccccn2)C1c1ccc(C)cc1` (stereo unspecified) cannot be ordered by solubility kinetic: 52.8 µg/mL (≈ 142 µM) for the first, > 46.3 µg/mL for the second.

Going from `Cc1ccc(C2=NOC3(CC(=O)N(c4ccc(C)cc4)C3=O)C2)cc1` (stereo unspecified) to `CCOC(=O)C1=C(N)Oc2cc(O)ccc2C1c1ccc(C)cc1` (stereo unspecified), the solubility kinetic falls from 12.6 µg/mL (≈ 37.7 µM) to < 0.7 µg/mL.

Compared with `CCN(CCO)c1ccc(N=Cc2c(O)n(C)c(=S)[nH]c2=O)cc1`, `CCN(CC)CC#Cc1ccc(C)cc1.Cl` is 5.3-fold higher in solubility kinetic: 3.2 µg/mL (≈ 9.18 µM) for the first, 17.1 µg/mL for the second.

Going from `N#C/C(=C\c1ccc(Cl)c([N+](=O)[O-])c1)c1ccccn1` to `CCc1cc(C(=O)Nc2ncccc2O)sc1C`, the solubility kinetic rises from 2.5 µg/mL (≈ 8.75 µM) to > 39.3 µg/mL.

`Cc1sc2nc(SCC(=O)O)[nH]c(=O)c2c1C` and `CN(C)C(=O)COc1ccc2c3c(c(=O)oc2c1)CCCC3` cannot be ordered by solubility kinetic: > 40.5 µg/mL for the first, 44.6 µg/mL (≈ 148 µM) for the second.

`COC(=O)c1ccc(=O)n(CC(=O)c2ccc(Cl)cc2)c1` and `CCOCCn1c(=O)c2c(nc3n2CCCN3Cc2ccccc2)n(C)c1=O` cannot be ordered by solubility kinetic: > 45.9 µg/mL for the first, > 57.5 µg/mL for the second.

Compared with `CCCn1c(SCC(=O)N(CC)CC)nnc1-c1ccncc1`, `CN1C(=O)NC(c2cccc([N+](=O)[O-])c2)C2=C1CC(C)(C)CC2=O` (stereo unspecified) is lower in solubility kinetic: > 50 µg/mL for the first, 34.6 µg/mL (≈ 105 µM) for the second.

First: CC1(C)C2CCC1(C)C(OC(=O)CNc1ccccc1)C2 (stereo unspecified)
Second: O=C1NC2(CCCC2)Oc2ccccc21
The solubility kinetic of the first is lower: 4.2 µg/mL (≈ 14.6 µM) for the first, > 30.5 µg/mL for the second.

First: O=C1c2ccccc2C(=O)c2[nH]c(=O)[nH]c21
Second: Cc1cc(C)c2c(c1)N[C@H](c1cccs1)[C@@H]1CCO[C@H]21
The solubility kinetic of the first is higher: > 32.1 µg/mL for the first, 1.7 µg/mL (≈ 5.96 µM) for the second.
